Values quoted from earlier work, collected in patent publication US9789076B2, “Bolus dose of hydroxycitric acid with glycerol” (GLYKON TECHNOLOGIES GROUP, LLC, priority 2014, dated 2017).
Like-named read-outs stand apart in the source and are kept apart here.

How the values were obtained:
[1] = rats, oral, 30 days
[2] = 0.33 mmoles/kg twice daily (total 0.66 mmoles/kg)

| SMILES | inhibition of acetate or ethanol incorporation into fatty acid synthesis (fatty acid synthesis) | food consumption, percent of controls [1, 2] [%] | weight gain, percent of controls [1, 2] [%] | food consumption, percent of controls ([1]; 2.63 mmoles/kg as bolus) [%] | weight gain, percent of controls ([1]; 2.63 mmoles/kg as bolus) [%] | lowest effect dosage ([1]; given twice daily) [mmoles/kg body weight] |
| --- | --- | --- | --- | --- | --- | --- |
| O=C(O)CC(O)(C(=O)O)C(O)C(=O)O (single isomer, unassigned; (-)) [hydroxycitrate, (−)-Hydroxycitric acid] | no hydroxycitrate inhibition |  |  |  |  |  |
| O=C([O-])CC(O)(C(=O)[O-])C(O)C(=O)[O-].[Na+].[Na+].[Na+] (stereo not drawn) [trisodium hydroxycitrate] |  | 87 | 62 | 83 | 64 | 0.33 |
